TGI and GI50 data for 14 compounds are collected here from PubChem BioAssay (NCI).

Some test systems named below: UACC-62 melanoma; RXF 393 renal; NCI-H226 lung; EKVX NSCLC; SNB-19 CNS; K-562 leukemia; SK-MEL-5 melanoma; UO-31 renal; RPMI-8226 leukemia; SK-MEL-2 melanoma.
Assay in all cases: NCI tumour cell line growth inhibition, 48 h

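Compound exposure: 48 hours, 5 concentrations, 96-well plates. GI50 is the concentration that inhibits growth by half. TGI is the concentration that stops growth completely.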

As for `CC(=O)Oc1ccc2c(c1)oc1c3ccc(OC(C)=O)cc3n(C)c(=O)c21`, the TGI in the experiment with UACC-62 melanoma was more than 100 µM; with RXF 393 renal, more than 100 µM; in the experiment on NCI-H226 lung, 53.1 µM; in the experiment on EKVX NSCLC, 70.8 µM; in the experiment on SNB-19 CNS, more than 100 µM; in the experiment on K-562 leukemia it was more than 100 µM. Besides, the TGI was 16.7 µM with SK-MEL-5 melanoma and more than 100 µM with UO-31 renal.
On to `O=[N+]([O-])c1ccccc1NC1c2ccccc2Oc2ccccc21`, for which the GI50 is 2.94 µM in the experiment on UACC-62 melanoma; 3.35 µM in the experiment on RXF 393 renal; 5.86 µM with RPMI-8226 leukemia; 8.43 µM with SK-MEL-2 melanoma; 5.91 µM with NCI-H226 lung; 17.2 µM in the experiment with EKVX NSCLC. Besides, the GI50 is 4.35 µM with SNB-19 CNS, 3.69 µM in the experiment with K-562 leukemia, 3.44 µM in the experiment with SK-MEL-5 melanoma and 7.46 µM in the experiment on UO-31 renal. Also, the TGI in the experiment on UACC-62 melanoma was more than 100 µM; with RXF 393 renal, 16.6 µM; in the experiment on RPMI-8226 leukemia, more than 100 µM; in the experiment on SK-MEL-2 melanoma it was more than 100 µM; in the experiment with NCI-H226 lung it was more than 100 µM; with EKVX NSCLC, more than 100 µM. Moreover, the TGI in the experiment with SNB-19 CNS, in the experiment on K-562 leukemia, in the experiment on SK-MEL-5 melanoma and in the experiment with UO-31 renal was more than 100 µM throughout.
As to `CCN(CC)CCCNc1ncc(C)c2[nH]c3ccncc3c12`, the TGI with UACC-62 melanoma is 28.2 µM; in the experiment on RXF 393 renal, 23 µM; with RPMI-8226 leukemia, more than 100 µM; in the experiment with SK-MEL-2 melanoma, 23.6 µM; in the experiment with NCI-H226 lung, 20.3 µM; in the experiment on EKVX NSCLC, 63.3 µM. Also, the TGI was more than 100 µM with SNB-19 CNS, more than 100 µM with K-562 leukemia, 28.1 µM with SK-MEL-5 melanoma and more than 100 µM in the experiment with UO-31 renal.
Regarding `COC(=O)c1cccc(N[C@@H]2c3cc4c(cc3C(c3cc(OC)c(O)c(OC)c3)[C@H]3C(=O)OCC32)OCO4)c1` (some centres undefined), the TGI with UACC-62 melanoma was 8.28 µM; in the experiment with RXF 393 renal, 15.9 µM; in the experiment with RPMI-8226 leukemia, more than 20.2 µM; in the experiment on SK-MEL-2 melanoma it was more than 63 µM; in the experiment on NCI-H226 lung it was 3.6 µM; in the experiment on EKVX NSCLC, more than 26.6 µM. Also, the TGI was more than 63.4 µM in the experiment on SNB-19 CNS, 20.6 µM with K-562 leukemia, 3.02 µM in the experiment with SK-MEL-5 melanoma and 11.7 µM with UO-31 renal.
For `N=C(N)c1ccc(-c2ccc(-c3ccccc3)s2)cc1`, the GI50 in the experiment with UACC-62 melanoma is 1.75 µM; in the experiment on RXF 393 renal, 1.72 µM; in the experiment on SK-MEL-2 melanoma it was 1.97 µM; in the experiment on NCI-H226 lung, 3.01 µM; in the experiment on EKVX NSCLC it was 2.65 µM; with SK-MEL-5 melanoma it was 1.77 µM. The GI50 in the experiment on UO-31 renal was 1.48 µM. For the same compound, the TGI with UACC-62 melanoma amounted to 3.42 µM; in the experiment with RXF 393 renal, 3.39 µM; in the experiment with SK-MEL-2 melanoma, 4.1 µM; in the experiment on NCI-H226 lung, 14.6 µM; in the experiment with EKVX NSCLC, 11.4 µM; with SK-MEL-5 melanoma, 3.19 µM. The same compound registered a TGI with UO-31 renal of 2.81 µM.
In the case of `S=P1(N2CCCCC2)Oc2ccc3ccccc3c2-c2c(ccc3ccccc23)O1`, the TGI in the experiment on UACC-62 melanoma, in the experiment with RXF 393 renal, in the experiment with RPMI-8226 leukemia, with SK-MEL-2 melanoma, in the experiment with NCI-H226 lung and in the experiment with EKVX NSCLC was more than 100 µM in each case. In addition, the TGI in the experiment with SNB-19 CNS, in the experiment with K-562 leukemia, in the experiment on SK-MEL-5 melanoma and in the experiment on UO-31 renal was more than 100 µM in each case.
In the case of `CCCCCCCC/C=C\CCCCCCCC(=O)O`, the TGI in the experiment on UACC-62 melanoma was 351 µM; in the experiment with RXF 393 renal, 168 µM; in the experiment on RPMI-8226 leukemia, 277 µM; in the experiment with SK-MEL-2 melanoma, more than 281 µM; in the experiment on NCI-H226 lung, 227 µM; with EKVX NSCLC it was 164 µM. The TGI with SNB-19 CNS is 252 µM; with K-562 leukemia it was 219 µM; with SK-MEL-5 melanoma, more than 282 µM; in the experiment on UO-31 renal, 241 µM.
Regarding `Cc1cc(C)c2c(c1)CC1(Cc3c(C)ccc(C)c3C1=O)C2=O` (centres undefined), the TGI with UACC-62 melanoma, in the experiment with RXF 393 renal, in the experiment on RPMI-8226 leukemia, in the experiment on SK-MEL-2 melanoma, with NCI-H226 lung and with EKVX NSCLC was more than 100 µM in each case. Also, the TGI in the experiment with SNB-19 CNS, with K-562 leukemia and with SK-MEL-5 melanoma was more than 100 µM throughout.
As for `O=C(O)CS`, the TGI in the experiment with UACC-62 melanoma, in the experiment on RXF 393 renal, in the experiment on RPMI-8226 leukemia, with SK-MEL-2 melanoma, in the experiment with NCI-H226 lung and in the experiment with EKVX NSCLC was more than 100 µM in each case. Further, the TGI in the experiment on SNB-19 CNS, with K-562 leukemia, with SK-MEL-5 melanoma and in the experiment with UO-31 renal was more than 100 µM in each case.
In the case of `COc1cc(/C=C/c2cc(/C=C/c3ccc(O)c(OC)c3)nc(N)n2)ccc1O`, the GI50 in the experiment on RPMI-8226 leukemia was 1.29 µM; in the experiment with NCI-H226 lung, 1.83 µM; with EKVX NSCLC, 2.22 µM; with SNB-19 CNS, 1.81 µM; in the experiment on K-562 leukemia it was 2.3 µM; in the experiment on SK-MEL-5 melanoma, 1.49 µM. In addition, the GI50 in the experiment with UO-31 renal was 2.09 µM. In addition, the TGI in the experiment with RPMI-8226 leukemia worked out at 4.18 µM; with NCI-H226 lung, 4.34 µM; with EKVX NSCLC, 6.83 µM; with SNB-19 CNS, 7.95 µM; in the experiment with K-562 leukemia, 8.31 µM; in the experiment on SK-MEL-5 melanoma it was 2.89 µM. Also, the TGI with UO-31 renal is 7.58 µM.
Regarding `CCNc1nnc(-c2nsc3ccccc23)s1`, the TGI with UACC-62 melanoma is more than 100 µM; in the experiment on RXF 393 renal it was more than 100 µM; in the experiment with RPMI-8226 leukemia, more than 100 µM; in the experiment on SK-MEL-2 melanoma, more than 100 µM; in the experiment on EKVX NSCLC, more than 100 µM; in the experiment on SNB-19 CNS it was 45.6 µM. Also, the TGI in the experiment with K-562 leukemia, with SK-MEL-5 melanoma and in the experiment on UO-31 renal was more than 100 µM in each case.
For the compound `O=C1C=CC2=[N+]([O-])C(c3ccccc3)(c3ccccc3)C(=Nc3ccccc3)C2=C1`, the TGI was determined as 4.51 µM in the experiment with UACC-62 melanoma; 3.04 µM with RXF 393 renal; 7.83 µM in the experiment on RPMI-8226 leukemia; 40.7 µM with SK-MEL-2 melanoma; 22.3 µM in the experiment with NCI-H226 lung; 14.1 µM in the experiment on EKVX NSCLC. Also, the TGI in the experiment on SNB-19 CNS came out at 31.6 µM; with K-562 leukemia, 4.34 µM; in the experiment with SK-MEL-5 melanoma, 27.2 µM; in the experiment with UO-31 renal, 5.33 µM.
`C=C1C(=O)C[C@@]23CCC[C@@]12CC(OCOC)C3` (some centres undefined): the TGI in the experiment on UACC-62 melanoma turned out to be 7.62 µM; with RXF 393 renal it was 2.17 µM; in the experiment with RPMI-8226 leukemia it was 9.8 µM; with SK-MEL-2 melanoma it was 11.2 µM; in the experiment with NCI-H226 lung it was 4.66 µM; in the experiment with EKVX NSCLC, 16.7 µM. The TGI in the experiment with SNB-19 CNS is 28.7 µM; in the experiment with K-562 leukemia, more than 51.5 µM; in the experiment with SK-MEL-5 melanoma, 13.3 µM; in the experiment with UO-31 renal, 13.3 µM.
`CC(C)CCC[C@@H](C)C1CCC2[C@@H]3CC=C4C[C@@H](C(=O)NCC[N+](C)(C)CCCS(=O)(=O)[O-])CC[C@]4(C)C3CC[C@@]21C` (some centres undefined): the TGI in the experiment with UACC-62 melanoma was determined as 34.7 µM; in the experiment on RXF 393 renal, 36.5 µM; in the experiment on RPMI-8226 leukemia, 41.5 µM; in the experiment with SK-MEL-2 melanoma it was 32.4 µM; in the experiment with NCI-H226 lung, 37.9 µM; in the experiment on EKVX NSCLC, 31 µM. Also, the TGI is 36.4 µM with SNB-19 CNS, 29.9 µM with K-562 leukemia, 41.4 µM in the experiment with SK-MEL-5 melanoma and 34.3 µM in the experiment with UO-31 renal.
